Laboratory results published in patent US5053070A, “Pyrimidine derivatives, preparation processes thereof, herbicide containing the same, and herbicidal compositions containing the same along with other active ingredient” (Mitsui Toatsu Chemicals, Incorporated, priority 1988, dated 1991).

Key:
bulrush = test: Treatment of soil under submerged condition, pre-emergence (Test 4); assay type: in vivo; settings: 30 g ai/a granule, 30 days later
Protocol: (§1) 1/5000-are Wagner pots were filled with soil. Seeds or tubers of barnyardgrass, Monochoria vaginalis, bulrush, Sagittaria pygmaea, Cyperus seroylnus and Eleocharis kuroguwai were seeded or planted under submerged condition. Two pairs of rice seedlings (2-3 leaf stage), which had been reared in advance, were transplanted to each pot and were allowed to germinate in a green house. Each pair consisted of two rice seedlings. One day later (before emergence of weeds), each pot was treated with a granule which had been prepared by processing a predetermined amount of the test composition in accordance with a similar method to the method described in Formulation Example 9. The state of emergence of weeds and the state of injury of rice were observed 30 days later.
(§2) In the table, the degrees of damages of the test plants and the degrees of injury of rice are shown in a similar manner to Example 2.

Sagittaria pygmaea = test: as above; assay type: in vivo; settings: 30 g ai/a granule, 30 days later
Protocol: as §1, §2

barnyardgrass [1] = test: as above; assay type: in vivo; settings: 30 g ai/a granule, 30 days later
Protocol: as §1, §2

foxtail meadow [2] = test: Upland soil application test (Test 2); assay type: in vivo; settings: 30 g ai/a, soil spray before emergence, 30 days later
Procedure, shortened: (§3)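 Pre-emergence test in upland soil pots with weed seeds mixed into the soil; one day after seeding, wettable-powder formulation diluted in water and sprayed onto the soil surface at 10 l per are. Damage scored 30 days later from air-dried weight relative to untreated pots.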

johnsongrass [3] = test: Upland soil application test (Test 2); assay type: in vivo; settings: 30 g ai/a, soil spray before emergence, 30 days later
Procedure, shortened: as §3

green foxtail [4] = test: Upland soil application test (Test 2); assay type: in vivo; settings: 30 g ai/a, soil spray before emergence, 30 days later
Procedure, shortened: as §3

[5] = tested on: ALS (acetolactate syntase); test: ALS enzyme assay (Test 1); assay type: biochemical, barnyardgrass; settings: 1,000 ppm (0.5 mg/0.5 ml)
Protocol: To determine the selectivity in enzyme level between crops and weeds, and ALS enzyme assay was conducted using pea as a representative of broadleaf crops and barnyardgrass as a representative of narrowleaf weeds.
After seeds of pea and barnyardgrass were allowed to germinate at 25° C. for 8-14 days in a dark place, partially-purified suspensions (Suspensions A) of acetolactate syntase were separately obtained from seedlings in accordance with the method described in the literature, Plant Physiology, 75, 827-831.
In a test tube, 0.5 mg of one of test compounds was weighed, followed by the addition of 0.15 ml of a 20 mM K2 HPO4 solution and 0.25 ml of a reaction substrate medium which consisted of 40 mM of K2 HPO4, 40 mM of sodium pyruvate, 1 mM of TPP, 1 mM of MgCl2 and 20 μM of FAD so that 0.4 ml of a reaction solution (Solution B) was prepared. Added to 0.4 ml of Solution B was 0.1 ml of suspension A. After the resultant mixture was shaken for 1 hour in a thermostat water bath controlled at 30° C., 50 μl of 6N sulfuric acid were added to terminate the reaction.
Next, the reaction-terminated liquid mixture was transferred into a thermostat water bath controlled at 60° C. and was heated for 15 minutes. Thereafter, 0.5 ml of a 0.5% creatine solution and 0.5 ml of a 5% alkaline α-naphthol solution were added, and the resultant mixture was maintained at 60° C. for 15 minutes. As a result, the test solution developed a pink-red color. After the above operation, the absorbance of the test solution at 525 nm was measured by a spectrophotometer (Absorbance 1 of Test Compound).
On the other hand, the absorbance (Absorbance 2 of Blank) of a solution obtained by subjecting a portion of Solution B, said portion being free of the test compound, to the above operation and the absorbance (Absorbance 3 of sulfuric acid terminated) of another solution obtained by subjecting another portion of Solution B, said portion containing 50 μl of 6N sulfuric acid as a test compound, were measured at the same time. Based on the values of the respective measurements, the enzyme assay at 1,000 ppm (0.5 mg/0.5 ml) of each compound was determined. [formula]

rice = test: Treatment of soil under submerged condition, pre-emergence (Test 4), injury; assay type: in vivo; settings: 30 g ai/a granule, 30 days later
Protocol: as §1, §2

redroot pigweed = test: Upland foliar application test (Test 3); assay type: in vivo; settings: 30 g ai/a, foliar spray at 2-3 leaves, 30th day
Protocol: (§4) Resin-made 1/10000-are pots were filled with the soil of an upland field. Redroot pigweed, common lambsquarters, foxtail meadow, johnsongrass, barnyardgrass, green foxtail, large crabgrass, soybean, peanut and cotton were separately seeded and were allowed to germinate in a green house. When each plant grew to the stage of 2-3 leaves, an emulsion formulated from a predetermined amount of each test compound in a similar manner to the method described in Formulation Example 11 was diluted with water to a predetermined dilution rate and then sprayed at an application rate equal to 5 l per are onto the foliage of each plant by means of a pressure-operated ULV (ultra low volume) sprayer. Influence to the crops and weeds were observed on the 30th day after the spray of the herbicides. The results are shown in Table 4 in which the degree of damages of each test plant and the degree of injury to each crop are shown in a similar manner to Test 2.

foxtail meadow [6] = test: Upland foliar application test (Test 3); assay type: in vivo; settings: 30 g ai/a, foliar spray at 2-3 leaves, 30th day
Protocol: as §4

johnsongrass [7] = test: Upland foliar application test (Test 3); assay type: in vivo; settings: 30 g ai/a, foliar spray at 2-3 leaves, 30th day
Protocol: as §4

large crabgrass = test: Upland foliar application test (Test 3); assay type: in vivo; settings: 30 g ai/a, foliar spray at 2-3 leaves, 30th day
Protocol: as §4

common lambsquarters = test: Upland foliar application test (Test 3); assay type: in vivo; settings: 30 g ai/a, foliar spray at 2-3 leaves, 30th day
Protocol: as §4

barnyardgrass [8] = test: Upland foliar application test (Test 3); assay type: in vivo; settings: 30 g ai/a, foliar spray at 2-3 leaves, 30th day
Protocol: as §4

green foxtail [9] = test: Upland foliar application test (Test 3); assay type: in vivo; settings: 30 g ai/a, foliar spray at 2-3 leaves, 30th day
Protocol: as §4

Row | Compound | Herbicidal effects Bulrush (bulrush) | Herbicidal effects Sagittaria Pygmaea (Sagittaria pygmaea) | Herbicidal effects Barnyardgrass (barnyardgrass [1]) | Herbicidal effects Foxtail meadow (foxtail meadow [2]) | Herbicidal effects Johnsongrass (johnsongrass [3]) | Herbicidal effects Green foxtail (green foxtail [4]) | Inhibitory activity (%) Barnyardgrass [5] [%] | Injury Rice (rice) | Herbicidal effects Redroot pigweed (redroot pigweed) | Herbicidal effects Foxtail meadow (foxtail meadow [6]) | Herbicidal effects Johnsongrass (johnsongrass [7]) | Herbicidal effects Large crabgrass (large crabgrass) | Herbicidal effects Common lambsquarters (common lambsquarters) | Herbicidal effects Barnyardgrass (barnyardgrass [8]) | Herbicidal effects Green foxtail (green foxtail [9])
1 | COc1cc(OC)nc(Oc2ccccc2C=NOCC=Cc2ccccc2Cl)n1 [Compound No. 27] | 4 (6-10 (Severe damages)) | 4 (6-10 (Severe damages)) | 5 (0-5 (Death)) | 5 (0-5 (Death)) | 5 (0-5 (Death)) | 5 (0-5 (Death)) | 100 | 0 (91-100 (No damages)) | 5 (0-5 (Death)) | 5 (0-5 (Death)) | 5 (0-5 (Death)) | 5 (0-5 (Death)) | 4 (6-10 (Severe damages)) | 4 (6-10 (Severe damages)) | 5 (0-5 (Death))
2 | COc1cc(OC)nc(Oc2ccccc2C=NOCC=Cc2ccc(Cl)cc2)n1 [Compound No. 28] | 3 (11-40 (Medium damages)) | 3 (11-40 (Medium damages)) | 3 (11-40 (Medium damages)) | 5 (0-5 (Death)) | 5 (0-5 (Death)) | 5 (0-5 (Death)) | 91 | 0 (91-100 (No damages)) | 4 (6-10 (Severe damages)) | 5 (0-5 (Death)) | 5 (0-5 (Death)) | 4 (6-10 (Severe damages)) | 4 (6-10 (Severe damages)) | 5 (0-5 (Death)) | 4 (6-10 (Severe damages))
3 | COc1cc(OC)nc(Oc2ccccc2C=NOCC=Cc2cccc(C)c2)n1 [Compound No. 34, 0-(3-methylcinnamyl)-2-(4,6-dimethoxy-2-pyrimidinyloxy)benzaldoxime] | 4 (6-10 (Severe damages)) | 5 (0-5 (Death)) | 4 (6-10 (Severe damages)) | 5 (0-5 (Death)) | 5 (0-5 (Death)) | 5 (0-5 (Death)) | 91 | 0 (91-100 (No damages)) | 4 (6-10 (Severe damages)) | 5 (0-5 (Death)) | 5 (0-5 (Death)) | 4 (6-10 (Severe damages)) | 4 (6-10 (Severe damages)) | 5 (0-5 (Death)) | 5 (0-5 (Death))
4 | COc1cc(OC)nc(Oc2ccccc2C=NOCC=Cc2ccccc2C)n1 [Compound No. 39] | 4 (6-10 (Severe damages)) | 4 (6-10 (Severe damages)) | 5 (0-5 (Death)) | 5 (0-5 (Death)) | 5 (0-5 (Death)) | 5 (0-5 (Death)) | 92 | 1 (71-90 (Slight damages)) | 5 (0-5 (Death)) | 5 (0-5 (Death)) | 5 (0-5 (Death)) | 5 (0-5 (Death)) | 4 (6-10 (Severe damages)) | 5 (0-5 (Death)) | 5 (0-5 (Death))
5 | C=C(C)CON=Cc1ccccc1Oc1nc(OC)cc(OC)n1 [compound 5] | 4 (6-10 (Severe damages)) | 5 (0-5 (Death)) | 4 (6-10 (Severe damages)) | 5 (0-5 (Death)) | 5 (0-5 (Death)) | 5 (0-5 (Death)) | 64 | 0 (91-100 (No damages)) | 4 (6-10 (Severe damages)) | 5 (0-5 (Death)) | 5 (0-5 (Death)) | 5 (0-5 (Death)) | 4 (6-10 (Severe damages)) | 5 (0-5 (Death)) | 5 (0-5 (Death))
6 | COc1cc(OC)nc(Oc2ccccc2C=NOC(C)C)n1 [compound 6] | 4 (6-10 (Severe damages)) | 4 (6-10 (Severe damages)) | 4 (6-10 (Severe damages)) | 5 (0-5 (Death)) | 5 (0-5 (Death)) | 5 (0-5 (Death)) | 17 | 0 (91-100 (No damages)) | 4 (6-10 (Severe damages)) | 5 (0-5 (Death)) | 5 (0-5 (Death)) | 3 (11-40 (Medium damages)) | 4 (6-10 (Severe damages)) | 4 (6-10 (Severe damages)) | 5 (0-5 (Death))
7 | CC=CCON=Cc1ccccc1Oc1nc(OC)cc(OC)n1 [compound 8] | 4 (6-10 (Severe damages)) | 4 (6-10 (Severe damages)) | 4 (6-10 (Severe damages)) | 5 (0-5 (Death)) | 5 (0-5 (Death)) | 5 (0-5 (Death)) | 41 | 1 (71-90 (Slight damages)) | 5 (0-5 (Death)) | 5 (0-5 (Death)) | 5 (0-5 (Death)) | 3 (11-40 (Medium damages)) | 4 (6-10 (Severe damages)) | 4 (6-10 (Severe damages)) | 5 (0-5 (Death))
